Data on 1 compound can be found in patent publication US20060264455A1 (priority 2005, published 2006).

One series has as its system motor skills on rotorod. The series can be described thus: Toxicity Model (TOX), rotorod, mice. The note with it: for N/F (mice showing an effect / mice tested), TOX: ip; for Behavioral motor impairment, share of mice tested: po. It counts as in vivo. The text has this:
(§1) To investigate the neurotoxicity levels of the huperzine compounds, the Toxicity Model (TOX) using a rotorod is employed. The animals (e.g., mice) were trained to stand on an accelerating rotorod rotating at 10 rev min^−1 with a diameter of 3.2 cm. The trained animal can be given the huperzine compound at various doses and the effect of huperzine on their motor skills can be determined. The dose at which the animals fell off the rotorod is the toxic dose.
(§2) The neurotoxicity of huperzine was tested in the rotorod test. The mice were trained to stand on an accelerating rotorod rotating at 10 rev min^−1 with a diameter of 3.2 cm. The trained animals were given the huperzine at various doses and the effect of huperzine on their motor skills was determined. The dose at which the animals fell off the rotorod was the toxic dose.
(In general: Falling from the rotarod earlier than controls is read as motor impairment.)

The nature of series [1]: Toxicity Model (TOX), rotorod, mice. Format: in vivo. The note with it: male, CFI, mouse, in vivo, ip; mice.
From the text: as §1, §2

Take `C/C=C1\[C@H]2C=C(C)C[C@]1(N)c1ccc(=O)[nH]c1C2` [Huperzine A]: the Toxicity entry in the series on motor skills on rotorod (5 mg/kg I.P., within 30 minutes post administration) was “toxic in all animals”. For the same compound, the Behavioral impairment result in the series on motor skills on rotorod (mouse, in vivo) is “marked motor impairment”. For the same compound, the “N/F (mice showing an effect / mice tested), TOX” value is listed as 0/4 with motor skills on rotorod (mouse, in vivo, 0.1 mg/kg, 4 h); 0/4 in the series on motor skills on rotorod (mouse, in vivo, 0.3 mg/kg, 4 h); 4/4 in the series on motor skills on rotorod (mouse, in vivo, 1 mg/kg, 0.5 h); 2/2 with motor skills on rotorod (mouse, in vivo, 1 mg/kg, 4 h); 8/8 in the series with motor skills on rotorod (mouse, in vivo, 3 mg/kg, 0.5 h); 4/4 with motor skills on rotorod (mouse, in vivo, 3 mg/kg, 4 h). For the same compound, the “N/F (mice showing an effect / mice tested), TOX” value is 4/4 in the series with motor skills on rotorod (mouse, in vivo, 10 mg/kg, 0.5 h); 2/2 with motor skills on rotorod (mouse, in vivo, 10 mg/kg, 4 h); 4/4 in the series with motor skills on rotorod (mouse, in vivo, 30 mg/kg, 0.5 h); 8/8 with motor skills on rotorod (mouse, in vivo, 100 mg/kg, 0.5 h); 4/4 in the series on motor skills on rotorod (mouse, in vivo, 300 mg/kg, 0.5 h). The “Behavioral motor impairment, share of mice tested” value in the series on motor skills on rotorod (mouse, in vivo, 2 mg/kg) is listed as 75%; with motor skills on rotorod (mouse, in vivo, 4 mg/kg) it was 100%. Moreover, the TD50 (in general, the dose at which the toxic effect under study appears in half of the subjects) in series [1] is 0.83 mg/kg.
